Values quoted from earlier work as cited in US20240382549A1, “USE OF MULBERRY EXTRACT FOR IMPROVING SLEEP QUALITY AND/OR SUBSEQUENT BEHAVIOURAL OUTCOMES” (SOCIETE DES PRODUITS NESTLE S.A., priority 2021, published 2024).

Conditions: earlier study; 12.5 mg DNJ in capsule, co-ingestion with maltodextrin

OC[C@H]1NC[C@H](O)[C@@H](O)[C@@H]1O [DNJ, 1-deoxynojirimycin]
reduction of PPGR: 14%
